Assay results published in patent US20060166236A1, “Allosteric enzyme coupled immunoassay (AECIA)” (priority 2004, published 2006).
pEC50: −log10 of the molar value.

Legend:
[1] = target: T1, rat liver PFK (ATP-dependent fructose-6-phosphate kinase, EC2.7.1.11) (Rattus norvegicus, UniProt P30835); assay: Stimulation assay of rat liver phosphofructokinase by Fructose 2,6 Pi; type: biochemical; settings: in the presence of 2 mM fructose 6-phosphate and 1 mM AMP; pH 7.1, 22° C.; 3 mM ATP; FIG. 4; read-out: half-maximal effect (activation of rat liver PFK)
T1 construct: Fresh livers from rats were homogenized in a homogenizer with 3 volumes of chilled buffer; from tissue; host or cells: rat liver
T1 sequence (P30835 1-780): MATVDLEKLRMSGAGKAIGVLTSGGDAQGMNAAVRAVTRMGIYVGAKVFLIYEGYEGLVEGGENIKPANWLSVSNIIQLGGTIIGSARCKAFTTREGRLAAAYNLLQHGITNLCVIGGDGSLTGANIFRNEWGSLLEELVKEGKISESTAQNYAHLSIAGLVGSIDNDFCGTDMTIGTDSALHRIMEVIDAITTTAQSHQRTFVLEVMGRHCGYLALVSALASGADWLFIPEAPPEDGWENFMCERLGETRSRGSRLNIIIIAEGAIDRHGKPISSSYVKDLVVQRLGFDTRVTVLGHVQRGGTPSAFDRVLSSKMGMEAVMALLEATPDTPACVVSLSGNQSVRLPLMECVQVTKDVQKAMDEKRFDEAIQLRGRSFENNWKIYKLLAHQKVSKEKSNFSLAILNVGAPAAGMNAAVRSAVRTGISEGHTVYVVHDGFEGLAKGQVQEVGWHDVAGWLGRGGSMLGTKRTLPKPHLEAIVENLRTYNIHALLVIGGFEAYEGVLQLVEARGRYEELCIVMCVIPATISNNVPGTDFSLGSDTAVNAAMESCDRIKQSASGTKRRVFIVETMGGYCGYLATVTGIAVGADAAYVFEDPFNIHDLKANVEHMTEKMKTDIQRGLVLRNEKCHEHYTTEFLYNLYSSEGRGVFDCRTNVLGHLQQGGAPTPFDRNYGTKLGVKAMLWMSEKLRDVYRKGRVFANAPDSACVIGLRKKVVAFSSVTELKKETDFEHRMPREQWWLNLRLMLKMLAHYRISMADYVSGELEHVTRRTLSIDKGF
Procedure: ATP-dependent fructose-6-phosphate kinase (EC2.7.1.11) was purified from rat livers according to the procedures described in Reinhart and Lardy., Biochemistry, 19:1477-1484 (1980). The purification procedure includes a heat step, ammonium sulfate precipitation, and DEAE ion-exchange and gel filtration chromatography as follows:
The assay was performed at pH 7.1 and 22° C. The incubation mixture contained 100 mM KCl, 1 mM NH4Cl, 0.15 mM NADH, 50 mM Hepes buffer, 50 μg/ml aldolase, 10 μg/ml glycerol-3-phosphate dehydrogenase, 1 μg/ml triose phosphate isomerase, 5 mM MgCl2, 1 mM AMP, 2 mM fructose 6-phosphate, and 0.2 mM Pi. The reaction was initiated by adding 3 mM ATP.

[2] = target: T2, potato tuber PPi-PFK (pyrophosphate-dependent fructose-6-phosphate kinase, EC2.7.1.90) (Solanum tuberosum, UniProt P21342+P21343); assay: Stimulation assay of potato tuber PPi-PFK by Fructose 2,6 Pi; type: biochemical; settings: in the presence of 1 mM fructose 6-phosphate and 2.5 mM PPi; FIG. 3; read-out: half-maximal effect (activation of potato tuber PPi-PFK)
T2 construct: Peeled potato tubers (330 g) were homogenized in a blendor; from tissue; host or cells: potato tubers
T2 sequence (P21342 1-616): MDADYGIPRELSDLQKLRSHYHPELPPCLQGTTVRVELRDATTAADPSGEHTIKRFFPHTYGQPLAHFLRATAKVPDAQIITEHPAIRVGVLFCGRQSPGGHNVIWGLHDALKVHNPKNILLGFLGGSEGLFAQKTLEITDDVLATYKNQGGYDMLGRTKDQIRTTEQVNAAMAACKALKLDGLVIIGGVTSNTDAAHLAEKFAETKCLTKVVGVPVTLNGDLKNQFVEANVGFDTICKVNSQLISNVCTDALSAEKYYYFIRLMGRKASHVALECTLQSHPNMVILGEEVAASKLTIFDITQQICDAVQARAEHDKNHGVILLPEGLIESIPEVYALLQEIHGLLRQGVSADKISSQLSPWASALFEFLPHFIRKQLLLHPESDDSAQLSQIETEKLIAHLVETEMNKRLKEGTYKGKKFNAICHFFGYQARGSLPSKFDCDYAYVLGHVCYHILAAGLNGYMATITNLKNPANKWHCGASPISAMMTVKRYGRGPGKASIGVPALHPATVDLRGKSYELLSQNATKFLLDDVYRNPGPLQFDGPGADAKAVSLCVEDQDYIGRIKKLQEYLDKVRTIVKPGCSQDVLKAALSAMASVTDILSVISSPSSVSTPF
T2 sequence (P21343 1-569): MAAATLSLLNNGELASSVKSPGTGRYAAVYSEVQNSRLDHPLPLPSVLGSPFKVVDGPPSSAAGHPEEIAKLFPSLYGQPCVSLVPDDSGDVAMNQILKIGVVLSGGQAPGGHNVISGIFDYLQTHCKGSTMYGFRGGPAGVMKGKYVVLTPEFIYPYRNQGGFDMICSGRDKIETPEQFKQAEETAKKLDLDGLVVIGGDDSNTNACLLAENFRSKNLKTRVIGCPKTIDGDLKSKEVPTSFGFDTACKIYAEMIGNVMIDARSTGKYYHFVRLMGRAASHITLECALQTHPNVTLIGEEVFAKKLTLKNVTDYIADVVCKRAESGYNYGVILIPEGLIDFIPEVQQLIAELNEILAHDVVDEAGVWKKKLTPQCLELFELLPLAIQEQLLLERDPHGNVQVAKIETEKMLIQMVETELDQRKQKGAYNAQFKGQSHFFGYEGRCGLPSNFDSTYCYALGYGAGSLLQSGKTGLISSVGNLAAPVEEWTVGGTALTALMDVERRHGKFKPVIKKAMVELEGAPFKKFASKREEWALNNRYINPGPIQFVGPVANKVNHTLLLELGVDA
Procedure: Potato tubers PPi-PFK was purified according to the procedure described in Van Schafingen et al., Eur. J. Biochem., 129:191-195 (1982). Peeled potato tubers (330 g) were homogenized in a blendor with 2 volume of ice-cold 20 mM Hepes pH8.2 containing 20 mM potassium acetate and 2 mM dithiothreitol. The homogenate was filtered through cheese cloth. Solid sodium pyrophosphate and 1 mM MgCl2 were added to the filtrate to reach 2 mM and the pH was adjusted to 8.2 at 0° C. The mixture was brought to 59° C. by shaking in a water bath adjusted to 70° C. and maintained for 5 min in a water bath at 59° C.; it was then cooled and brought to pH 7.1 at 0° C. All subsequent steps were carried out at 0-4° C. Six (6) g of poly(ethylene glycol) 6000 were added per 100 ml of solution and after mixing for 15 min, the preparation was allowed to stand for 10 min and then centrifuged for 10 min at 4000×g; 8 g of poly(ethylene glycol) were then added per 100 ml of the resulting supernatant (700 ml) which was mixed and centrifuged as described above. The resulting pellet was dissolved in 40 ml of a solution containing 20 mM Tris, pH8.2, 20 mM KCl, and 2 mM dithiothreitol and applied to a column (25×120 mm) of DEAE-cellulose equilibrated with the same buffer. The column was washed with 100 ml of buffer and developed with a gradient of KCl (20-400 mM) in the same dithiothreitol/Tris buffer. […]

O=P(O)(O)OCC1OC(CO)(OP(=O)(O)O)C(O)C1O (centres unmarked) [fructose 2, 6 Pi, fructose-2,6-bisphosphate]
pEC50 [1]: ~7.40 | pEC50 [2]: ~8.26
